Data taken from paper PMC13224100, “Esterase-Responsive Mitochondria-Targeted Hydropersulfide Donors Mitigate Doxorubicin Cardiotoxicity While Preserving Anticancer Activity” (Angewandte Chemie (International ed. in English), 2025).

Key:
[1] = Aqueous stability of RSSH precursors in PBS; type: physicochemical
Method: We synthesized AST-2 as an esterase-sensitive RSSH donor via reaction of N-acetylpenicillamine methyl ester with methoxycarbonyl sulfenyl chloride in dichloromethane at 0 °C, affording the product in 72% yield (see Scheme S1). We first evaluated the aqueous stability of AST-2 in phosphate-buffered saline (PBS, pH 7.4) at 37 °C.
APT-1 was synthesized in 93% overall yield via a one-pot two-step sequence: N-acetylpenicillamine methyl ester was reacted with chlorocarbonylsulfenyl chloride to afford an S-perthiocarbonyl chloride intermediate, which was subsequently treated with 2-acetoxy-N-methylethan-1-aminium chloride in the presence of triethylamine (see Supporting Information).
We first evaluated the aqueous stability of the mitochondria-targeted analogs AST-2-TPP and APT-1-TPP. […] APT-1-TPP similarly retained excellent stability, with < 5% degradation over 41 h (Figure S1D).

[2] = tested on: H9c2 cells; assay: Cytotoxicity of RSSH donors, CCK-8 assay; type: cell-based; details: up to 200 μM, 24 h
Method: We evaluated the cytoprotective effects of RSSH precursors against DOX-induced cardiotoxicity in H9c2 cardiomyoblasts. First, we assessed the cytotoxicity of the RSSH donors (AST-2, APT-1, AST-2-TPP, and APT-1-TPP) using the CCK-8 assay.[24] […] To evaluate cytoprotection, H9c2 cells were pretreated with RSSH donors for 4 h, followed by 24 h co-treatment with DOX (5 μM). As expected, DOX alone reduced cell viability to ca. 50% (Figure 4a). […] Although both compounds were protective, […]. […] A distinctive feature of our study is the direct comparison between mitochondria-targeted and non-targeted RSSH donors. […] TPP conjugation only modestly enhances the cytoprotective effects of RSSH donors under our experimental conditions. This outcome may reflect the intrinsic high efficacy of non-targeted RSSH donors, thereby limiting the additional benefit of mitochondrial targeting. […]
Cytotoxicity Assessment of Hydropersulfide Precursors in H9c2 and HepG2 cells Cell viability was measured using the Cell Counting Kit-8 (CCK-8, Dojindo).[7] H9c2 cardiomyoblast and HepG2 cells were seeded at a density of 8 × 10³ cells/well in a 96-well plate (flat-bottom, tissue culture-treated). […] All treatments were prepared with a final DMSO concentration of <0.01%. In the vehicle control group, cells were treated with medium (DMEM with 10% FBS) containing 0.01% DMSO only. Cells were incubated with RSSH donors for an additional 24 h. After 24 h, cells were gently washed three times with PBS, pH 7.4. […] The plates were then incubated for 1-2 h before measuring absorbance at 450 nm using a plate reader […]
calculated as: % Viability = 100 × [Abs₄₅₀ (treated cells) / Abs₄₅₀ (vehicle control)]. Each treatment condition was performed in 6 technical replicates per biological replicate, and the experiment was independently repeated three times (n = 3 biological replicates). Data are presented as mean ±
(1 picture or pasted object on this page, not shown here)
Figure S23. Impact of (A) AST-2 or AST-2-TPP (0-200 µM) and (B) APT-1 (0-200 µM) or APT -1-TPP (0-200 µM) on H9c2 cardiomyocytes. Impact of (C) AST-2 or AST-2-TPP (0-200 µM) and (D) APT-1 (0-200 µM) or APT-1-TPP (0-200 µM) on HepG2 (liver cancer) cells. Results are expressed as mean ± SEM, n≥3; *P<0.05, **P<0.01, ***P<0.001, ****P<0.0001. Ctl = vehicle (medium with 0.01% DMSO) treated cells. […]

Row | SMILES | degradation (aqueous stability) ([1]; PBS pH 7.4, 37 °C, over 41 h) | cytotoxicity of donor alone [2] | decomposition (aqueous stability) ([1]; PBS, 37 °C, over 48 h) | decomposition (aqueous stability) ([1]; PBS pH 7.4, 37 °C, over 7 h) | decomposition (aqueous stability) ([1]; PBS pH 7.4, 37 °C, over 9 h)
1 | CC(=O)NC(C(=O)N(C)CCC[P+](c1ccccc1)(c1ccccc1)c1ccccc1)C(C)(C)SSC(=O)N(C)CCOC(C)=O (centres unmarked) [APT-1-TPP] | < 5% | no measurable toxicity |  |  | 
2 | COC(=O)C(NC(C)=O)C(C)(C)SSC(=O)N(C)CCOC(C)=O (centres unmarked) [APT-1] |  | no measurable toxicity | 7% |  | 
3 | COC(=O)SSC(C)(C)C(NC(C)=O)C(=O)N(C)CCC[P+](c1ccccc1)(c1ccccc1)c1ccccc1 (centres unmarked) [AST-2-TPP] |  | no measurable toxicity |  | ca. 20% | 
4 | COC(=O)SSC(C)(C)C(NC(C)=O)C(=O)OC (centres unmarked) [AST-2] |  | no measurable toxicity |  |  | 22%
